Test system: LpxC–9 complex
Test: NMR-ILOE (interligand NOESY) of fragment hits with LpxC and 9
Details: fragment hits binding the LpxC–9 complex by STD and WaterLogsy; 6 μM LpxC
Experimental: In order to find fragments specifically addressing the UDP-binding pocket, which can be linked to the LpxC inhibitors, a fragment screen was performed against LpxC bound to 9. First, 650 fragments in cocktails of five were tested for binding to the LpxC–9 complex using STD-NMR and WaterLogsy experiments. Then, fragment hits identified as potential binders were tested one by one against the LpxC–9 complex by STD-NMR and WaterLogsy experiments performed under identical experimental conditions. A total of 97 fragment hits were identified as binders, leading to a hit rate of 15%.
Then, NMR-ILOE experiments were performed with selected fragment hits in the presence of LpxC and the unsubstituted hydroxamic acid 9. This allowed the identification of fragments that bind in the enzyme’s UDP-binding pocket near the methylene group in the α-position of the inhibitor’s hydroxamate moiety. Weak interligand NOESY peaks were observed between inhibitor 9 and nine fragments. By contrast, no interligand NOESY peaks were observed between compound 9 and the other ten fragments. […] Unexpectedly, we also observed interligand NOESY between the fragment protons and protons of the morpholino moiety.
Standard 1D and STD NMR spectra were acquired at 20 °C with a Bruker 600 MHz NMR spectrometer equipped with a 5 mm cryoprobe. Parameters for the STD experiments (saturation frequency and saturation time) were identical for all samples. […] STD saturation time was 2 s. WaterLOGSY mixing time was 1.5 s. Two NOESY experiments were recorded with mixing times of 0.6 and 0.3 s. STD and WaterLOGSY spectra were recorded with the same NMR tubes containing 3 μM LpxC, compound 9 at 500 μM, and fragments at 500 μM. For NOESY experiments, NMR tubes contained 6 μM LpxC.
Temperature was set to 293 K for all NMR experiments.

O=c1ccn([C@@H]2O[C@H](CO)[C@@H](O)[C@H]2O)c(=O)[nH]1 [F15]
Inter-Ligand NOESY peaks between the fragment and 9: no

O=c1cc[nH]c(=O)[nH]1 [F16]
Inter-Ligand NOESY peaks between the fragment and 9: no

Nc1cccc(-c2cnco2)c1 [F17]
Inter-Ligand NOESY peaks between the fragment and 9: no

O=C1OCc2ccccc21 [F18]
Inter-Ligand NOESY peaks between the fragment and 9: no

c1ccc(Cn2ccnc2)cc1 [F19]
Inter-Ligand NOESY peaks between the fragment and 9: yes

Source: paper PMC11472313, “Development of Fragment-Based Inhibitors of the Bacterial Deacetylase LpxC with Low Nanomolar Activity” (Journal of Medicinal Chemistry, 2024)
